Assay type in all cases: biochemical
What all share (conditions): read-out: remaining kinase activity (in %) / percentage of inhibition; for inhibition at 0.01 µM: compound at 10 nM; for inhibition at 0.1 µM: compound at 100 nM

For one test, the target named is T1, AmpKa1 (Homo sapiens, UniProt Q13131).
T1 construct: purchased Carna Biosciences
Put plainly: LabChip (Caliper) kinase assay, AmpKa1. Here is the method: (§1) The analysis of kinase activity described here was performed using LabChip (Caliper Life Sciences), specifically the Caliper LC3000 and the EZ Reader II instruments.
(§2) The kinase assay used measures the conversion of a fluorescent peptide (substrate) to a phosphorylated product. The reaction mixture, in a microplate well, is introduced by a capillary in a chip where the non-phosphorylated substrate and the phosphorylated product are separated by […]. The intensity of the fluorescent signal over time is related to the reaction progress. The phosphorylated product migrates quicker than the non-phosphorylated substrate and the signals of the two forms of the peptide appear as differentiated peaks. The Caliper determines the peak height and calculates the ratio of product to the peak sum (P/(P+S)). This value is used to compare wells with compounds and wells with controls and thus determine the % of inhibition for the given product.
(§3) The followings kinases were used for the enzymatic inhibition studies, between brackets the value of the Michaelis-Menten constant, Km, of the ATP (Adenosine triphosphate) for each kinase, in μM: obtained from Carna Biosciences: MAPKAPK2 (4.6), AurA (3.6), AurB (5), PKCζ (3.8), RSK1 (23.3), PRAK (5), Erk1 (33.4), PKD2 (32.1), CK1d (16.3), CHK1 (33), ABL (61.7), FYN (36), LYNa (17), CHK2 (57.8), MET (79.5), LCK (28.5), SRC (38), GSK3β (7.3), Erk2 (62.1), PKACα (1.7), AKT2 (186.1), INSR (871.8), p38a (396.5), AKT1(48), MSK1 (21.2), PKCβ2 (84.8), ROCK2 (3.3), PIM2 (4.9), AMPK (38.6), KDR (164.8), IRAK4 (196.5), SGK1 (121.8), SYK (33.5); obtained from Invitrogen: CDK2 (57.6), BTK (123), HGK (80); obtained from Upstate: MST2 (36.6), PKGα (16), PAK2 (1.9), IGF1R (320), FGFR1 (171), MARK1 (33), CAMK2δ (22.4), c-TAK1 (66), DYRK1a (18.1), CaMK4 (3.9), FLT3 (350), c-Raf (6.2), P70S6K (95).
(§4) The compounds were dissolved in 100% DMSO and were diluted at 25 times the final concentration desired for the assay. In the case of the determination of Cl50, serial dilutions were made to reach eight concentrations and give rise to the inhibition curve. 1 μL of each concentration is transferred, in duplicate to a 384-well microplate. 12 μL of enzymatic buffer is added to each well containing purified kinase (several suppliers as indicated above), 100 mM HEPES, pH 7.5, 1 mM DTT (Calbiochem), 0.002% Brij-35 (Sigma) and also in presence of 10 mM MgCl2 as cofactor, except for INSR and IRAK4 wherein 10 mM MnCl2 is used instead of MgCl2. For the kinases CAMK26 and CAMK4, 1 mM CaCl2 and 6.7 μg/mL of calmodulin are also added. For KDR kinase, 0.05% of the CHAPSO detergent is added. For the c-Raf kinase, 10 mM MnCl2 is added. For PKCβ2 0.02 μg/mL of PS/PMA is added. For PKGα se 10 μM of cGMP (cyclic guanosine monophosphate) is added. The compound and the enzyme are left for 15 minutes preincubation and, then, the following are added to each well: 12 μL of peptide buffer/ATP containing 100 mM HEPES, pH 7.5, 1.5 μM peptide marker with fluorescein (specific for the corresponding kinase), ATP (at concentration KM), and 0.002% Brij-35 to start the reaction. Generally, the reactions are incubated for 1-1.5 h at ambient temperature to obtain an adequate conversion (15-40%) of the peptide to the phosphorylated product. The reactions were ended by the addition of 45 μL of buffer containing 0 mM EDTA. The microplates were read by the LabChip 3000 using a 12-channel LabChip. The P/(P+S) values were obtained as described above and the CI50 curves were generated using XIfit. […]

For a further test, the target named is T2, MST2 (Homo sapiens, UniProt Q13188).
T2 construct: purchased Upstate
T2 sequence (Q13188 1-491): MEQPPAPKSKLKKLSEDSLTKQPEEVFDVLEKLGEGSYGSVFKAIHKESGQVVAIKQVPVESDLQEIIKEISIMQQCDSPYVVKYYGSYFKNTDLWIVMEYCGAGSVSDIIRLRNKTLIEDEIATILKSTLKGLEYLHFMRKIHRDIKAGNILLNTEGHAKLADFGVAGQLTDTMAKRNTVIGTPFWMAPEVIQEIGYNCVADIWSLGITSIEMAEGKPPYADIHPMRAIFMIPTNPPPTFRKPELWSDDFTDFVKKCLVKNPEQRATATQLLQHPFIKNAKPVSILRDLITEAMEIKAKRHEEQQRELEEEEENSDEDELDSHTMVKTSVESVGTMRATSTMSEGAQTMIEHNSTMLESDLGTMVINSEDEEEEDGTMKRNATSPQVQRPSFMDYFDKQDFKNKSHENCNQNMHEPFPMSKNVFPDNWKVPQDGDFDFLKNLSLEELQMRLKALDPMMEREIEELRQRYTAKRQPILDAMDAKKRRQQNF
Put plainly: LabChip (Caliper) kinase assay, MST2. Here is the method:
as §1, §2, §3, §4

The next test addresses T3, p38a (Homo sapiens, UniProt Q16539).
T3 construct: purchased Carna Biosciences
Kind of test: LabChip (Caliper) kinase assay, p38a. Here is the method:
as §1, §2, §3, §4

T3 sequence (Q16539 whole entry): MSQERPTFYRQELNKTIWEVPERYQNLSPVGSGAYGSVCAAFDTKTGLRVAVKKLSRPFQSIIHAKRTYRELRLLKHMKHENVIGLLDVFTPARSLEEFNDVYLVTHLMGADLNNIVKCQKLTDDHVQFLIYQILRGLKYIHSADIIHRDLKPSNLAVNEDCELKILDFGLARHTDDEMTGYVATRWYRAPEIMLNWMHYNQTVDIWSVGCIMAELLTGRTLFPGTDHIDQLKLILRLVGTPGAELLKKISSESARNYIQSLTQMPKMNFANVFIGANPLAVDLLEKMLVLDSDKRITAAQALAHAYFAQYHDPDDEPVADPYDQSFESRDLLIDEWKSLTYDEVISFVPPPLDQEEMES
T1 sequence (Q13131 whole entry): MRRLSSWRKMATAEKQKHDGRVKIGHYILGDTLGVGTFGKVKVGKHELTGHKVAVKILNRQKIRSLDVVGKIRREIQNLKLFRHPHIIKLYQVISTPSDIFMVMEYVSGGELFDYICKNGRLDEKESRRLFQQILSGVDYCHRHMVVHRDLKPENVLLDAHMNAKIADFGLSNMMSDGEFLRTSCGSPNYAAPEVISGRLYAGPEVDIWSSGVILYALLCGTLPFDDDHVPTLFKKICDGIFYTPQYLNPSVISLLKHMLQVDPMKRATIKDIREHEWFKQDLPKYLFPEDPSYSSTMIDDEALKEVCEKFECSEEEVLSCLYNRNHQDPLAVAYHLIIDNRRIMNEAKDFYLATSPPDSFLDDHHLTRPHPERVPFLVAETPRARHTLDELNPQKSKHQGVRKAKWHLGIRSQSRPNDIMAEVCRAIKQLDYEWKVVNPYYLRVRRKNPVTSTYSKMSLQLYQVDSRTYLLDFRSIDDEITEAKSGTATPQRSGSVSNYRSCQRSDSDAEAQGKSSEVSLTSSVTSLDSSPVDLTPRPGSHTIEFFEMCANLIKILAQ
T1 sequence (Q9Y478 whole entry partner): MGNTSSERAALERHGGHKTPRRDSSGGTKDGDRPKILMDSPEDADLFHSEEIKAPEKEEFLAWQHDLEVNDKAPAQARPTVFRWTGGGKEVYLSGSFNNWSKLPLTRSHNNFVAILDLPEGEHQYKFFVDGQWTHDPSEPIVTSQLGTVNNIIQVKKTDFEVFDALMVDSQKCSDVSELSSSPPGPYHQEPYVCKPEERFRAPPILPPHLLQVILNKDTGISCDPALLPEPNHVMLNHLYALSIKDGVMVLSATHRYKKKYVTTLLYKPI
T1 sequence (P54619 whole entry partner): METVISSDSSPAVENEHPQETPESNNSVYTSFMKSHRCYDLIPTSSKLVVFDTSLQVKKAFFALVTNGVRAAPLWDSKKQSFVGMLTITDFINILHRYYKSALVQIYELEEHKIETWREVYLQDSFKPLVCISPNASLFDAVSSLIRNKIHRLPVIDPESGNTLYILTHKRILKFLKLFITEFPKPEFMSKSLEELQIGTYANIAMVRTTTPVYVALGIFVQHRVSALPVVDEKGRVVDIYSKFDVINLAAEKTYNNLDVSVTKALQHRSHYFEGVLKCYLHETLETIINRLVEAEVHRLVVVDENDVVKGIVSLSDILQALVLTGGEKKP

In the case of `C[C@@H]1O[C@@H](n2c3ccccc3c3c4c(c5c6ccccc6[nH]c5c32)C(=O)NC4=O)[C@H](O)[C@H](O)[C@H]1O` [formula (III), N^13-1′-β-L-rhamnosylarcyriaflavin], the inhibition at 0.01 µM was 1% at AmpKa1, 2% on MST2 and 0% at p38a. In addition, the inhibition at 0.1 µM was 11% at AmpKa1, 10% at MST2 and -1% on p38a.
`C[C@@H]1O[C@@H](n2c3ccccc3c3c4c(c5c6ccccc6[nH]c5c32)C(=O)NC4=O)C[C@H](O)[C@H]1O` [formula (IV), N^13-1′-β-L-olivosylarcyriaflavin]: the inhibition at 0.01 µM on AmpKa1 is 3%; on MST2 it was 2%; at p38a, -2%. Besides, the inhibition at 0.1 µM was 21% on AmpKa1, 15% at MST2 and -2% at p38a.
For the compound `C[C@@H]1O[C@@H](n2c3ccccc3c3c4c(c5c6ccccc6[nH]c5c32)C(=O)NC4=O)C[C@@H](O)[C@H]1O` [formula (V), N^13-1′-β-L-digitoxosylarcyriaflavin], the inhibition at 0.01 µM on AmpKa1 is 8%; on MST2, 16%; on p38a, 1%. In addition, the results for the inhibition at 0.1 µM at AmpKa1, at MST2 and at p38a were 28%, 54% and -2%, respectively.
`C[C@H]1O[C@@H](n2c3ccccc3c3c4c(c5c6ccccc6[nH]c5c32)C(=O)NC4=O)C[C@@H](O)[C@@H]1O` [formula (VI), N^13-1′-β-D-olivosylarcyriaflavin]: the inhibition at 0.01 µM at AmpKa1 is 5%; on MST2, 13%; at p38a, -1%. In addition, the inhibition at 0.1 µM on AmpKa1 is 33%; on MST2, 65%; on p38a, -1%.
For the compound `C[C@@H]1O[C@@H](n2c3ccccc3c3c4c(c5c6ccccc6[nH]c5c32)CNC4=O)[C@H](O)[C@H](O)[C@H]1O` [formula (XII), N^13-1′-β-L-rhamnosyl-k252c], the inhibition at 0.01 µM on AmpKa1 is 1%; at MST2 it was 4%; at p38a, -1%. The inhibition at 0.1 µM at AmpKa1 was determined as 7%; on MST2 it was 19%; at p38a, 0%.
As to `C[C@@H]1O[C@@H](n2c3ccccc3c3c4c(c5c6ccccc6[nH]c5c32)CNC4=O)C[C@H](O)[C@H]1O` [formula (XIII), N^13-1′-β-L-olivosyl-k252c], the values for the inhibition at 0.01 µM on AmpKa1, at MST2 and at p38a were -3%, 4% and -2%, respectively. Moreover, the inhibition at 0.1 µM was 10% at AmpKa1, 33% on MST2 and -3% on p38a.
Consider `C[C@@H]1O[C@@H](n2c3ccccc3c3c4c(c5c6ccccc6[nH]c5c32)CNC4=O)C[C@@H](O)[C@H]1O` [formula (XIV), N^13-1′-β-L-digitoxosyl-k252c], for which the results for the inhibition at 0.01 µM on AmpKa1, at MST2 and on p38a were 2%, 7% and -1%, respectively. The inhibition at 0.1 µM on AmpKa1 was 1%; at MST2, 34%; at p38a, -2%.
`C[C@H]1O[C@@H](n2c3ccccc3c3c4c(c5c6ccccc6[nH]c5c32)CNC4=O)C[C@@H](O)[C@@H]1O` [formula (XV), N^13-1′-β-D-olivosyl-k252c]: the inhibition at 0.01 µM was -3% at AmpKa1, 12% at MST2 and -1% on p38a. In addition, the inhibition at 0.1 µM at AmpKa1 is 9%; at MST2 it was 78%; on p38a, -3%.

(Values after patent US8598132B2, “Glycosylated indolocarbazoles, method for obtaining same and uses thereof” (Universidad de Oviedo, priority 2008, dated 2013).)
